Experiments:
[1] = tested on: Borrelia burgdorferi infection in a human patient; assay: Treatment of a human patient with Borrelia burgdorferi infection; format: in vivo; settings: human patient with neurological distress, Borrelia burgdorferi positive
Leptospira [2] = assay: Susceptibility testing of Leptospira isolated from a patient with symptoms of rheumatoid arthritis; format: cell-based; settings: for Antibiotic Susceptibility Results, SERUM: Leptospira culture from serum of rheumatoid arthritis patient; for Antibiotic Susceptibility Results, URINE: Leptospira culture from urine of rheumatoid arthritis patient
Excerpt: (§1) This example describes the preparation of a pellet used for antimicrobial susceptibility testing of a culture sample. The procedure begins with a culture (e.g., prepared in the manner described in Example 2), where serum from a patient is inoculated in GSI-1 media and allowed to grow. In order to form pellet, an aliquot of this culture sample is placed in a microcentrifuge tube along with 10% SDS solution, and centrifuged at 14,000 g to disrupt the spirochetes and maximize the number of available eptiopic sites. The disrupted spirochetes were then cultured in an alternative growth medium made up of one part GSI-1 medium, one part 6.5% lactalbumin hydrolysate, one part 2% brain heart infusion, one part 10% pluronic fluid, and one part of the isolated (disrupted) spirochetes. This inoculated alternative growth medium was then allowed to incubate in the closed micro centrifuge tube until a distinctive pellet was observed (typically 7-14 days).
(§2) Following the observation of pellet formation, the tube was vortexed and incubated at 35° C. until a MacFarlane standard of between 8 to 12% turbidity was achieved. MICROSCAN antibiotic susceptibility microtiter plates were then inoculated with (e.g., 110 μl of) inoculum and allowed to incubate at 35° C. for 16-20 hours. The microtiter plates were then scanned for growth and respective sensitivity reaction (both the control well and the growth well).
This Example describes the diagnosis and treatment of a human patient with symptoms of rheumatoid arthritis. In particular, serum and urine samples from this patient were initially cultured on GSI-1 (e.g., as described in Example 2), and screened for the presence of spirochetes (e.g., as described in Example 3). […] These cultures were then used to produce pellets for antimicrobial susceptibility testing (e.g., as described in Example 6). The antimicrobial susceptibility tests were then carried out on each sample (e.g., as described in Example 7) with the antimicrobials listed below in Table 5.

Y. entero gp. = assay: Antibiotic susceptibility test (MICROSCAN or disc diffusion), control organism Y. entero gp.; format: cell-based; settings: total isolates 1
Leptospira [3] = assay: Antibiotic susceptibility test (MICROSCAN or disc diffusion) of patient samples positive for Leptospira; format: cell-based; settings: total isolates 276
Excerpt: as §1
as §2, with “well). Table 2 below lists the various antimicrobials tested with this sample and whether growth of the organism was inhibited (susceptible) or whether the growth of the organism was not inhibited (resistant).” for “well).”
(§3) This Example describes the results for susceptibility tests that were performed on a large number of patient samples positive for either Borrelia or Leptospira. […] The results presented in Table 3 reveal the varied response of different types of spirochetes to different antibiotics.

Treponema isolate = assay: Antimicrobial susceptibility test (MICROSCAN plates) of a patient's Treponema isolate; format: cell-based; settings: for RESULT (antibiotic susceptibility): Treponema infected patient's isolate, MICROSCAN plates, 35° C., 16-20 hours; for susceptibility profile from a specific human patient: text restating Example 7
Protocol: For susceptibility testing, the organisms harvested could be assayed using any suitable susceptibility assay (See, Example 7). In some embodiments of the present invention, MICROSCAN antibiotic susceptibility plates were inoculated and incubated. Following incubations, plates were scanned for growth and respective sensitivity reaction. […] For the results to be considered reliable, the no growth of organisms was accepted in the negative control well, while the positive control well had to have sufficient growth to be read. In some embodiments of the present invention, to confirm the presence or absence of growing spirochetes in the growth well, aliquots from the growth well were reinoculated with fresh growth media and after an incubation time (e.g., 7-10 days) the presence of the organisms was confirmed (e.g., by phase contrast microscopy or direct fluorescent antibody staining).
as §1
This example describes an antimicrobial susceptibility test performed for a human patient. The patient had previously been testing using GSI-1 medium (e.g., as described in Example 2) for the presence of any spirochetes. […] This culture sample was then transferred to a microcentrifuge tube, and a pellet for antimicrobial susceptibility testing was prepared as described in Example 6.
as §2, with “well). Table 2 below lists the various antimicrobials tested with this sample and whether growth of the organism was inhibited (susceptible) or whether the growth of the organism was not inhibited (resistant).” for “well).”

Leptospira [4] = assay: Susceptibility testing of Leptospira isolated from a patient with symptoms of multiple sclerosis; format: cell-based; settings: for Antibiotic Susceptibility Results, SERUM: Leptospira culture from serum of multiple sclerosis patient; for Antibiotic Susceptibility Results, URINE: Leptospira culture from urine of multiple sclerosis patient
Protocol: This example describes the preparation of a pellet used for antimicrobial susceptibility testing of a culture sample. […] In order to form pellet, an aliquot of this culture sample is placed in a microcentrifuge tube along with 10% SDS solution, and centrifuged at 14,000 g to disrupt the spirochetes and maximize the number of available eptiopic sites. […] This inoculated alternative growth medium was then allowed to incubate in the closed micro centrifuge tube until a distinctive pellet was observed (typically 7-14 days).
MICROSCAN antibiotic susceptibility microtiter plates were then inoculated with (e.g., 110 μl of) inoculum and allowed to incubate at 35° C. for 16-20 hours. The microtiter plates were then scanned for growth and respective sensitivity reaction (both the control well and the growth well).

E. coli = assay: Antibiotic susceptibility test (MICROSCAN or disc diffusion), control organism E. coli; format: cell-based; settings: total isolates 1
Tatumella = assay: Antibiotic susceptibility test (MICROSCAN or disc diffusion), control organism Tatumella; format: cell-based; settings: total isolates 2
Excerpt: as §1
as §2, with “well). Table 2 below lists the various antimicrobials tested with this sample and whether growth of the organism was inhibited (susceptible) or whether the growth of the organism was not inhibited (resistant).” for “well).”
as §3

Borrelia = assay: Antibiotic susceptibility test (MICROSCAN or disc diffusion) of patient samples positive for Borrelia; format: cell-based; settings: total isolates 519
Excerpt: as §1
as §2, with “well). Table 2 below lists the various antimicrobials tested with this sample and whether growth of the organism was inhibited (susceptible) or whether the growth of the organism was not inhibited (resistant).” for “well).”
as §3

Borrelia and Leptospira = assay: Susceptibility of several hundred patient samples having Borrelia and Leptospira infections (population effectiveness); format: cell-based
Protocol: In these experiments, several hundred patient samples were cultured on GSI-1 (e.g., as described in Example 2). These culture samples were then used to produce pellets for antimicrobial susceptibility testing as described in Example 6. The antimicrobial susceptibility tests were then carried out on each sample as described in Example 7 or by the disc diffusion method (e.g., instead of MICROSCAN) with the antimicrobials listed below in Table 3.

A. lwoffii = assay: Antibiotic susceptibility test (MICROSCAN or disc diffusion), control organism A. lwoffii; format: cell-based; settings: total isolates 1
Pseudomonas = assay: Antibiotic susceptibility test (MICROSCAN or disc diffusion), control organism Pseudomonas; format: cell-based; settings: total isolates 1

| Compound | patient response to treatment [1] | Antibiotic Susceptibility Results, SERUM (Leptospira [2]) | Antibiotic Susceptibility Results, URINE (Leptospira [2]) | Antibiotic Susceptibility Test Results, Y. entero gp. (Y. entero gp.) [%] | Antibiotic Susceptibility Test Results, Leptospira (Leptospira [3]) [%] | RESULT (antibiotic susceptibility) (Treponema isolate) | susceptibility profile from a specific human patient (Treponema isolate) | Antibiotic Susceptibility Results, SERUM (Leptospira [4]) | Antibiotic Susceptibility Results, URINE (Leptospira [4]) | Antibiotic Susceptibility Test Results, E. coli (E. coli) [%] | Antibiotic Susceptibility Test Results, Tatumella (Tatumella) [%] | Antibiotic Susceptibility Test Results, Borrelia (Borrelia) [%] | effectiveness in the population (Borrelia and Leptospira) | Antibiotic Susceptibility Test Results, A. lwoffii (A. lwoffii) [%] | Antibiotic Susceptibility Test Results, Pseudomonas (Pseudomonas) [%] |
| --- | --- | --- | --- | --- | --- | --- | --- | --- | --- | --- | --- | --- | --- | --- | --- |
| CO/N=C(\C(=O)N[C@@H]1C(=O)N2C(C(=O)O)=C(CSc3nc(=O)c(=O)[nH]n3C)CS[C@H]12)c1csc(N)n1 [ceftriaxone] | responded well until the medication was stopped | – | – | – | – | – | – | – | – | – | – | – | – | – | – |
| Amoxicillin/Clavulanate [Augmentin] | – | Susceptible | Susceptible | 100 | 89 | Resistant | resistance | Resistant | Resistant | 100 | 100 | 90 | over 80% | – | – |
| C[C@H]1[C@H](NC(=O)/C(=N\OC(C)(C)C(=O)O)c2csc(N)n2)C(=O)N1S(=O)(=O)O [Aztreonam] | – | Resistant | Resistant | 0 | 15 | Susceptible | sensitive | Resistant | Resistant | 100 | 0 | 11 | less than 20% | 100 | 100 |
